# Results published in patent publication US6737383B1, “Herbicidal oxadiazolidines” (priority 1999, dated 2004).
# What was measured:
# rice = assay: Test B flood test rice; format: in vivo, Oryza sativa
# Procedure, shortened: (§1)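 Flood test on plants grown to the 2-leaf stage; treated plants kept in greenhouse twelve to sixteen days, then visually rated against controls on a 0 (no effect) to 10 (complete control) scale.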
# corn = assay: Test B pre/postemergence corn; format: in vivo, Zea mays
# Procedure, shortened: (§2)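 Herbicidal effect was estimated by eye on a ten-point control scale after plants spent twelve to sixteen days in a greenhouse following soil or foliar treatment. Foliar sprays targeted plants at one to four leaves; all doses were formulated in a non-phytotoxic solvent with surfactant.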
# bedstraw = assay: Test B pre/postemergence bedstraw; format: in vivo, Galium aparine
# Procedure, shortened: as §2
# morningglory = assay: Test B pre/postemergence morningglory; format: in vivo, Ipomoea hederacea
# Procedure, shortened: as §2
# surinam grass = assay: Test B pre/postemergence surinam grass; format: in vivo, Brachiaria decumbens
# Procedure, shortened: as §2
# velvetleaf = assay: Test B pre/postemergence velvetleaf; format: in vivo, Abutilon theophrasti
# Procedure, shortened: as §2
# giant foxtail = assay: Test B pre/postemergence giant foxtail; format: in vivo, Setaria faberii
# Procedure, shortened: as §2
# purple nutsedge = assay: Test B pre/postemergence purple nutsedge; format: in vivo, Cyperus rotundus
# Procedure, shortened: as §2
# duck salad = assay: Test B flood test duck salad; format: in vivo, Heteranthera limosa
# Procedure, shortened: as §1
# smallflower flatsedge = assay: Test B flood test smallflower flatsedge; format: in vivo, Cyperus difformis
# Procedure, shortened: as §1
# crabgrass = assay: Test B pre/postemergence crabgrass; format: in vivo, Digitaria sanguinalis
# Procedure, shortened: as §2
# wheat = assay: Test B pre/postemergence wheat; format: in vivo, Triticum aestivum
# Procedure, shortened: as §2
# wild oat = assay: Test B pre/postemergence wild oat; format: in vivo, Avena fatua
# Procedure, shortened: as §2
# blackgrass = assay: Test B pre/postemergence blackgrass; format: in vivo, Alopecurus myosuroides
# Procedure, shortened: as §2
# soybean = assay: Test B pre/postemergence soybean; format: in vivo, Glycine max
# Procedure, shortened: as §2
# pigweed = assay: Test B pre/postemergence pigweed; format: in vivo, Amaranthus retroflexus
# Procedure, shortened: as §2
# [1] = Rate 62 g/ha, headed Pre-emergence (flood test species), scale 0 to 10 (0 no effect, 10 complete control)
# [2] = Rate 125 g/ha, Pre-emergence, flood test species, scale 0 to 10 where 0 is no effect and 10 is complete control
# [3] = Rate 250 g/ha, Pre-emergence, flood-test species, scale 0 to 10, 0 is no effect, 10 is complete control
# [4] = Rate 500 g/ha, Pre-emergence, flood test species, scale 0 to 10 (0 no effect, 10 complete control)
# [5] = Postemergence, Rate 125 g/ha, scale 0 to 10, 0 is no effect, 10 is complete control
# [6] = Preemergence, Rate 62 g/ha, scale of 0 to 10 where 0 is no effect and 10 is complete control
# [7] = Preemergence, Rate 250 g/ha, scale of 0 to 10 where 0 is no effect and 10 is complete control
# [8] = Preemergence, Rate 500 g/ha, scale of 0 to 10 where 0 is no effect and 10 is complete control
# [9] = Rate 62 g/ha, Postemergence, scale 0 to 10 (0 no effect, 10 complete control)
# [10] = Rate 500 g/ha, Postemergence, scale 0 to 10, 0 no effect, 10 complete control
# [11] = Rate 250 g/ha, Postemergence, scale of 0 to 10 where 0 is no effect and 10 is complete control
compound,measurement,setting,value
Cc1ccc(N(C(=O)n2oc(=O)n(-c3ccc4ccccc4c3)c2=O)C(C)C)cc1 [Compound 334],Rice plant response rating,rice; [1],0
same,Rice plant response rating,rice; [2],0
same,Rice plant response rating,rice; [3],0
same,Rice plant response rating,rice; [4],0
same,"Plant response rating, Corn",corn; [5],0
same,Corn plant response rating,corn; [6],0
same,Corn plant response rating (0 to 10 scale),"corn; Preemergence, Rate 125 g/ha",0
same,Corn plant response rating,corn; [7],0
same,Corn plant response rating,corn; [8],0
same,Corn plant response rating,corn; [9],0
same,"Plant response rating, Corn",corn; [10],0
same,"Plant response rating, Bedstraw",bedstraw; [5],0
same,Bedstraw plant response rating,bedstraw; [6],0
same,Bedstraw plant response rating (0 to 10 scale),"bedstraw; Preemergence, Rate 125 g/ha",0
same,Bedstraw plant response rating,bedstraw; [7],0
same,Bedstraw plant response rating,bedstraw; [8],0
same,Bedstraw plant response rating,bedstraw; [9],0
same,"Plant response rating, Bedstraw",bedstraw; [10],0
same,"Plant response rating, Morningglory",morningglory; [5],0
same,Morningglory plant response rating,morningglory; [6],0
same,Morningglory plant response rating (0 to 10 scale),"morningglory; Preemergence, Rate 125 g/ha",0
same,Morningglory plant response rating,morningglory; [7],0
same,Morningglory plant response rating,morningglory; [8],0
same,Morningglory plant response rating,morningglory; [9],0
same,"Plant response rating, Morningglory",morningglory; [10],0
same,"Plant response rating, B. signalgrass",surinam grass; [5],0
same,B. signalgrass plant response rating,surinam grass; [6],0
same,"B. signalgrass plant response rating (0 to 10 scale, 0 is no effect, 10 is complete control)","surinam grass; Preemergence, Rate 125 g/ha",0
same,B. signalgrass plant response rating,surinam grass; [7],0
same,B. signalgrass plant response rating,surinam grass; [8],0
same,B. signalgrass plant response rating,surinam grass; [9],0
same,"Plant response rating, B. signalgrass",surinam grass; [11],0
same,"Plant response rating, B. signalgrass",surinam grass; [10],0
same,"Plant response rating, Velvetleaf",velvetleaf; [5],0
same,Velvetleaf plant response rating,velvetleaf; [6],0
same,Velvetleaf plant response rating (0 to 10 scale),"velvetleaf; Preemergence, Rate 125 g/ha",0
same,Velvetleaf plant response rating,velvetleaf; [7],0
same,Velvetleaf plant response rating,velvetleaf; [8],0
same,Velvetleaf plant response rating,velvetleaf; [9],0
same,"Plant response rating, Velvetleaf",velvetleaf; [10],0
same,"Plant response rating, Giant foxtail",giant foxtail; [5],0
same,Giant foxtail plant response rating,giant foxtail; [6],0
same,Giant foxtail plant response rating (0 to 10 scale),"giant foxtail; Preemergence, Rate 125 g/ha",0
same,Giant foxtail plant response rating,giant foxtail; [7],0
same,Giant foxtail plant response rating,giant foxtail; [8],0
same,Giant foxtail plant response rating,giant foxtail; [9],0
same,"Plant response rating, Giant foxtail",giant foxtail; [10],0
same,"Plant response rating, Nutsedge",purple nutsedge; [5],0
same,Nutsedge plant response rating,purple nutsedge; [6],0
same,Nutsedge plant response rating (0 to 10 scale),"purple nutsedge; Preemergence, Rate 125 g/ha",0
same,Nutsedge plant response rating,purple nutsedge; [7],0
same,Nutsedge plant response rating,purple nutsedge; [8],0
same,Nutsedge plant response rating,purple nutsedge; [9],0
same,"Plant response rating, Nutsedge",purple nutsedge; [10],0
same,Ducksalad plant response rating,duck salad; [1],0
same,Ducksalad plant response rating,duck salad; [2],0
same,Ducksalad plant response rating,duck salad; [3],0
same,Ducksalad plant response rating,duck salad; [4],0
same,S. Flatsedge plant response rating,smallflower flatsedge; [1],0
same,S. Flatsedge plant response rating,smallflower flatsedge; [2],0
same,S. Flatsedge plant response rating,smallflower flatsedge; [3],0
same,S. Flatsedge plant response rating,smallflower flatsedge; [4],0
same,"Plant response rating, Crabgrass",crabgrass; [5],0
same,Crabgrass plant response rating,crabgrass; [6],0
same,Crabgrass plant response rating (0 to 10 scale),"crabgrass; Preemergence, Rate 125 g/ha",0
same,Crabgrass plant response rating,crabgrass; [7],0
same,Crabgrass plant response rating,crabgrass; [8],0
same,Crabgrass plant response rating,crabgrass; [9],0
same,"Plant response rating, Crabgrass",crabgrass; [10],0
same,"Plant response rating, Wheat",wheat; [5],0
same,Wheat plant response rating,wheat; [6],0
same,Wheat plant response rating (0 to 10 scale),"wheat; Preemergence, Rate 125 g/ha",0
same,Wheat plant response rating,wheat; [7],0
same,Wheat plant response rating,wheat; [8],0
same,Wheat plant response rating,wheat; [9],0
same,"Plant response rating, Wheat",wheat; [10],0
same,"Plant response rating, Wild oats",wild oat; [5],0
same,Wild oats plant response rating,wild oat; [6],0
same,Wild oats plant response rating (0 to 10 scale),"wild oat; Preemergence, Rate 125 g/ha",0
same,Wild oats plant response rating,wild oat; [7],0
same,Wild oats plant response rating,wild oat; [8],0
same,Wild oats plant response rating,wild oat; [9],0
same,"Plant response rating, Wild oats",wild oat; [10],0
same,"Plant response rating, Blackgrass",blackgrass; [5],0
same,Blackgrass plant response rating,blackgrass; [6],0
same,Blackgrass plant response rating (0 to 10 scale),"blackgrass; Preemergence, Rate 125 g/ha",0
same,Blackgrass plant response rating,blackgrass; [7],0
same,Blackgrass plant response rating,blackgrass; [8],0
same,Blackgrass plant response rating,blackgrass; [9],0
same,"Plant response rating, Blackgrass",blackgrass; [11],0
same,"Plant response rating, Blackgrass",blackgrass; [10],0
same,"Plant response rating, Soybean",soybean; [5],1
same,Soybean plant response rating,soybean; [6],0
same,Soybean plant response rating (0 to 10 scale),"soybean; Preemergence, Rate 125 g/ha",0
same,Soybean plant response rating,soybean; [7],0
same,Soybean plant response rating,soybean; [8],0
same,Soybean plant response rating,soybean; [9],1
same,"Plant response rating, Soybean",soybean; [10],2
same,"Plant response rating, Redroot pigweed",pigweed; [5],0
same,Redroot pigweed plant response rating,pigweed; [6],0
same,Redroot pigweed plant response rating (0 to 10 scale),"pigweed; Preemergence, Rate 125 g/ha",0
same,Redroot pigweed plant response rating,pigweed; [7],0
same,Redroot pigweed plant response rating,pigweed; [8],0
same,Redroot pigweed plant response rating,pigweed; [9],0
same,"Plant response rating, Redroot pigweed",pigweed; [10],0
